From PubChem BioAssay (NCI)
Where “and” joins values, the source holds several entries; their conditions need not be identical. Identical values can stand only once.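 Protocol summary: plate cells (96-well), add compound at 5 concentrations, incubate 48 h, interpolate endpoints linearly. GI50 marks 50% less growth. TGI is the concentration that stops growth completely.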

Assays:
Test in all cases: NCI anticancer screen, dose series, 48 h
[1] = system: NCI-H226 lung
[2] = system: OVCAR-4 ovarian
[3] = system: TK-10 renal
[4] = system: HOP-92 NSCLC
[5] = system: HCT-116 colon
[6] = system: SK-MEL-5 melanoma
[7] = system: HL-60(TB) leukemia
[8] = system: A498 renal
[9] = system: SK-OV-3 ovarian
[10] = system: SNB-75 CNS

With `COC(=O)C12CC(C3CC31)C1CC12` (centres undefined) the TGI [1] was > 100 µM, the TGI [2] was > 100 µM and the TGI [3] was > 100 µM. The TGI [4] was > 100 µM, the TGI [5] was > 100 µM and the TGI [6] was > 100 µM. For the same compound, the TGI [7] was > 100 µM, the TGI [8] was > 100 µM and the TGI [9] was > 100 µM.
With `Cn1c(N)c(/C=N/NC(=O)CC#N)c(=O)n(C)c1=O` the TGI [1] was > 100 µM, the TGI [2] was > 100 µM and the TGI [3] was > 100 µM. The TGI [10] was > 100 µM, the TGI [5] was > 100 µM and the TGI [6] was > 100 µM. The TGI [8] was > 100 µM and the TGI [9] was > 100 µM.
With `Cc1ncc([N+](=O)[O-])n1CCN=[N+]=[N-]` the TGI [1] was > 100 µM, the TGI [2] was > 100 µM and the TGI [3] was > 100 µM. The TGI [10] was > 100 µM, the TGI [4] was > 100 µM and the TGI [5] was > 100 µM. The TGI [6] was > 100 µM, the TGI [8] was > 100 µM and the TGI [9] was > 100 µM.
In the case of `CCOC(=O)CCC1(C(=O)OC)CCCC1=O` (centres undefined), the TGI [3] is reported as > 100 µM, the TGI [10] is reported as > 100 µM and the TGI [4] is reported as > 100 µM. The TGI [5] was > 100 µM, the TGI [6] was > 100 µM and the TGI [7] was > 100 µM. The TGI [8] was > 100 µM and the TGI [9] was > 100 µM.
In the case of `C=C(CCOC)CCC1CCCCC(=C)C1=O` (centres undefined), the TGI [1] is reported as > 100 µM, the TGI [2] is reported as > 100 µM and the TGI [10] is reported as > 100 µM. The TGI [5] was > 100 µM, the TGI [6] was > 100 µM and the TGI [7] was > 100 µM. For the same compound, the TGI [8] was > 100 µM and the TGI [9] was > 100 µM.
`COc1cc(C(=O)Nc2nnc(S(N)(=O)=O)s2)cc(OC)c1OC` was tested, and the TGI [1] was > 100 µM, the TGI [2] was > 100 µM and the TGI [3] was > 100 µM. For the same compound, the TGI [4] was > 100 µM, the TGI [5] was > 100 µM and the TGI [6] was > 100 µM. For the same compound, the TGI [7] was > 100 µM and the TGI [9] was > 100 µM.
With `O=c1c(Cc2ccc(Cl)cc2)nnc2sc(-c3ccc([N+](=O)[O-])cc3)nn12` the TGI [2] was > 100 µM, the TGI [3] was 68.4 µM and the TGI [4] was > 100 µM. It also gave a TGI [5] of 48.8 µM, a TGI [7] of 49.6 µM and a TGI [8] of 63.6 µM. For the same compound, the TGI [9] was > 100 µM.
With `c1ccc2c(c1)CCCc1cc3ccccc3nc1-2` the TGI [2] was > 100 µM, the TGI [3] was > 100 µM and the TGI [10] was > 100 µM. The TGI [5] was > 100 µM, the TGI [6] was > 100 µM and the TGI [8] was > 100 µM. The TGI [9] was > 100 µM.
`c1ccc(C2=NN3CN(N2)c2ccccc2OCCCOc2ccccc23)cc1` was tested, and the TGI [1] was > 100 µM, the TGI [2] was > 100 µM and the TGI [3] was > 100 µM. For the same compound, the TGI [10] was > 100 µM, the TGI [5] was > 100 µM and the TGI [6] was > 100 µM. For the same compound, the TGI [7] was > 100 µM.
Work on `CCCCCCCCCCCCOC1C(COCCN2CCCC2)OC2OC(C)(C)OC21` (centres undefined) yielded a TGI [1] of 7.62 µM, a TGI [2] of 7.6 µM and a TGI [3] of 3.03 µM. For the same compound, the TGI [10] was 3.75 µM, the TGI [4] was 2.72 µM and the TGI [5] was 3.13 µM. The TGI [6] was 2.95 µM, the TGI [8] was 27.9 µM and the TGI [9] was 3.33 µM.
In the case of `CC1=NN(C(=O)CC(=O)Nc2cccc(Cl)c2)C(=O)C1N=Nc1ccc(S(N)(=O)=O)cc1` (centres undefined), the TGI [1] is reported as > 100 µM, the TGI [2] is reported as > 100 µM and the TGI [3] is reported as > 100 µM. For the same compound, the TGI [10] was > 100 µM, the TGI [4] was > 100 µM and the TGI [5] was > 100 µM. For the same compound, the TGI [6] was > 100 µM, the TGI [8] was > 100 µM and the TGI [9] was > 100 µM.
Work on `CNc1ccc2nc(-c3ccc(OC(=O)N(C)C)cc3)cn2c1` yielded a TGI [1] of 37.4 µM, a TGI [2] of 31.6 µM and a TGI [3] of 34.3 µM. For the same compound, the TGI [4] was 50 µM, the TGI [5] was 33.5 µM and the TGI [6] was 57.1 µM. For the same compound, the TGI [7] was 62.3 µM, the TGI [8] was 32.2 µM and the TGI [9] was 33 µM.
With `O=C1c2ccccc2NC2C(O)c3ccccc3N12` (centres undefined) the TGI [1] was > 100 µM, the TGI [2] was > 100 µM and the TGI [3] was > 100 µM. For the same compound, the TGI [10] was > 100 µM, the TGI [4] was > 100 µM and the TGI [5] was > 100 µM. The TGI [6] was > 100 µM, the TGI [8] was 37.9 µM and the TGI [9] was > 100 µM.
In the case of `C/C(=N\N(C)C)C(CN(C)C)C(c1ccccc1)c1c(O)c2ccccc2oc1=O` (centres undefined), the TGI [1] is reported as > 100 µM, the TGI [2] is reported as > 100 µM and the TGI [3] is reported as > 100 µM. For the same compound, the TGI [10] was > 100 µM, the TGI [4] was > 100 µM and the TGI [5] was > 100 µM. For the same compound, the TGI [6] was > 100 µM, the TGI [7] was > 100 µM and the TGI [9] was > 100 µM.
In the case of `COc1ccc(Cn2nc(OCc3ccccn3)c3cc([N+](=O)[O-])ccc32)cc1`, the TGI [1] is reported as > 100 µM, the TGI [3] is reported as > 100 µM and the TGI [6] is reported as > 100 µM. The TGI [7] was > 100 µM, the TGI [8] was > 100 µM and the TGI [9] was > 100 µM.
In the case of `O=S1(=O)NNC(=NCc2ccc(F)cc2)c2ccccc21`, the TGI [1] is reported as > 100 µM, the TGI [2] is reported as > 100 µM and the TGI [4] is reported as > 83.5 µM. The TGI [5] was > 100 µM, the TGI [6] was > 100 µM and the TGI [7] was 19.6 µM. The TGI [8] was > 100 µM and the TGI [9] was > 100 µM.
`Cc1cc(S(=O)(=O)Nc2n[nH]c(Nc3ccccc3)n2)c(S)cc1Cl` was tested, and the TGI [1] was > 10 µM, the TGI [2] was > 10 µM and the TGI [3] was > 10 µM. For the same compound, the TGI [10] was > 10 µM, the TGI [5] was > 10 µM and the TGI [6] was > 10 µM. The TGI [7] was > 10 µM, the TGI [8] was > 10 µM and the TGI [9] was > 10 µM.
With `Cc1cnc(Cl)nc1C(C#N)c1nc2ccccc2n1C` (centres undefined) the TGI [1] was > 100 µM, the TGI [2] was > 100 µM and the TGI [3] was > 100 µM. The TGI [10] was 69.3 µM, the TGI [4] was > 100 µM and the TGI [5] was 51.2 µM. The TGI [6] was > 100 µM, the TGI [8] was > 100 µM and the TGI [9] was > 100 µM.
`Cc1ccc2ccccc2c1CC1S(=O)(=O)OCCOS1(=O)=O` was tested, and the TGI [2] was 23.6 µM, the TGI [3] was 31.1 µM and the TGI [5] was 26 µM. The TGI [6] was 26.4 µM and the TGI [7] was 5.38 µM.
`CCCCCCCCCCCCC(=O)NCC(=O)NC(Cc1ccccc1)C(=O)Oc1ccc([N+](=O)[O-])cc1` (centres undefined) was tested, and the TGI [1] was > 100 µM, the TGI [3] was > 100 µM and the TGI [10] was > 100 µM. For the same compound, the TGI [5] was > 100 µM, the TGI [6] was > 100 µM and the TGI [7] was > 100 µM. The TGI [8] was > 100 µM.
For `O=c1[nH]c(=O)n(C2CC(O)C(CO)O2)cc1C#Cc1ccc(C(F)(F)F)cc1` (centres undefined), the TGI [1] was > 100 µM, the TGI [2] was > 100 µM and the TGI [3] was > 100 µM. The TGI [10] was > 100 µM, the TGI [4] was > 100 µM and the TGI [5] was > 100 µM. For the same compound, the TGI [6] was > 100 µM, the TGI [7] was > 100 µM and the TGI [9] was > 100 µM.
`COc1cc2c3c(n(CCCNCCO)c(=O)c2cc1OC)-c1cc2c(cc1C3=O)OCO2` was tested, and the GI50 [1] was 0.0474 µM, the TGI [1] was 1.46 µM and 0.269 µM and the TGI [3] was 28.5 µM. The GI50 [4] was 0.831 µM and 0.102 µM, the TGI [4] was 2.77 µM and 3.56 µM and the GI50 [5] was 0.0662 µM and 0.0639 µM. The TGI [5] was 1.05 µM and 0.686 µM, the TGI [6] was 1.51 µM and 1.56 µM and the GI50 [7] was < 0.0277 µM. For the same compound, the GI50 [8] was 0.033 µM, the TGI [8] was 1.87 µM and 1.49 µM and the GI50 [9] was 0.603 µM and 0.663 µM. For the same compound, the TGI [9] was 2.15 µM and 19 µM.
Work on `O=C1/C(=C/c2ccccc2S)N=C(c2ccccc2)N1c1ccc2c(c1)Sc1cc(N3C(=O)/C(=C/c4ccccc4S)N=C3c3ccccc3)ccc1N2` yielded a TGI [2] of 90.5 µM, a TGI [3] of 31.3 µM and a TGI [10] of 38.4 µM. The TGI [4] was 34.5 µM, the TGI [5] was 40.8 µM and the TGI [6] was 30.7 µM. For the same compound, the TGI [8] was 35.4 µM and the TGI [9] was 33.8 µM.
For `O=C(Cn1c2ccc(Br)cc2c2nc3ccccc3nc21)NC1CCCCC1`, the TGI [1] was > 100 µM, the TGI [2] was > 100 µM and the TGI [3] was > 100 µM. The TGI [10] was > 100 µM, the TGI [4] was > 100 µM and the TGI [5] was > 100 µM. For the same compound, the TGI [6] was > 100 µM, the TGI [8] was > 100 µM and the TGI [9] was > 100 µM.
